Results on four compounds are retold here after paper PMC12730265, “Combinatorial Antimicrobial Effects of Imidazolium-Based Ionic Liquids and Antifungals on Model Fungal Organisms” (Biomolecules, 2025).

The structures appear in SMILES notation. Read-outs that look alike come from different tables or passages of the source. Some results are limits rather than exact numbers.

What all share (type): cell-based
The subject of experiment [1] is C. albicans. Kind of experiment: Kirby–Bauer disk diffusion assay on IL-containing YPD plates. The note with it: for inhibition of C. albicans growth around disk: absence of added IL. The protocol:
(§1) Assessment of fungal growth on YPD plates with AFs + ILs served as an indicator for the combined efficacy of treatment of ILs and AFs. YPD agar plates were made with addition of increasing concentrations of [HMIM]Cl at 0, 2.5, 6.25, and 25 mM or [OMIM]Cl at 0, 0.25, 0.625, and 2.5 mM. Plates solidified and dried on bench for 24 h before use. IN total, 400 μL of S. cerevisiae or C. albicans liquid culture at mid-log phase OD600 0.5 was spread using sterile glass beads to achieve even distribution. Following addition of culture, the plates were allowed to dry for 30 min before the addition of antifungal disks. Antifungal-infused disks were prepared using the stock solutions of solubilized antibiotics; 15 μL of each of the 4 azole antifungals at stock concentrations was pipetted onto a sterile 6 mm cellulose disk (BD). […] After plate drying was complete, sterile forceps were used to transfer the disks to the media, and the plate was grown upright in an incubator overnight at 30 °C. The following day, photographs were taken of the plates to visualize the zone of inhibition (ZOI) created by the combined treatment. Adobe Illustrator 2023 CC was used to perform digital measurements of ZOI diameters.
(§2) To assess the potential for combinatorial effects of ILs and AFs in yeast, Kirby–Bauer disk diffusion assays were performed for C. albicans and S. cerevisiae for [HMIM]Cl and [OMIM]Cl with all four AFs. […] The addition of 6 mm cellulose disks infused with equal volumes of solubilized AFs to the plates occurred after plating of C. albicans or S. cerevisiae, allowing for growth for 48 h at 23 °C, at which point the plates were evaluated for the establishment of zones of inhibition (ZOI). Digital pictures were acquired of all plates, and measurements of ZOI diameter were performed digitally as described in the Methods. […] With progressively increasing amounts of both [HMIM]Cl and [OMIM]Cl, ZOIs increased for all Afs, including Fluconazole and Itraconazole, which appear to be ineffective without IL in the Kirby–Bauer disk assay. Experiments were performed in triplicate and ZOIs were measured for all plates.
(Agar diffusion results depend on both activity and mobility in agar.)

Experiment [2] concerns C. albicans. Kind of experiment: MIC50 by microbroth dilution. The note with it: Candida albicans, 48 h. Here is the method:
(§3) A single colony was picked from each streak to prepare overnight in 5 mL fresh YPD broth and placed into a tilted rotating incubator set at 30 °C and 40 rpm overnight. After ~16–20 h, a fresh dilution in media (1:200) was made and used for the experiment. […] Finally, diluted culture was added to each well of a sterile 96-well plate containing serially diluted aliquots of each RTIL to a total volume of 100 µL. The plate was incubated at 30 °C overnight with shaking for 24 and 48 h. At both timepoints, the yeast was manually resuspended in the plate by pipetting and we measured the OD600 using a Spectramax M5 multimode plate reader (Molecular Devices, San Jose, CA, USA).
(§4) The four species of yeast tested included three common lab strains of non-pathogenic yeast strains, S. boulardii, S. cerevisiae, and S. pombe, and one common human pathogen, C. albicans.

Experiment [3] deals with S. boulardii. Kind of experiment: MIC50 by microbroth dilution. Conditions: Saccharomyces cerevisiae. Here is the method:
as §3, §4

For experiment [4], the system named is S. cerevisiae. Nature of the experiment: MIC50 by microbroth dilution. The note with it: Saccharomyces cerevisiae. The protocol: as §3, §4
In experiment [5] the test system is S. pombe. Nature of the experiment: MIC50 by microbroth dilution. Conditions: Schizosaccharomyces pombe. The protocol:
as §3, §4
A general note: Broth dilution looks for growth in wells or tubes with falling amounts of substance.

Experiment [6] relates to S. cerevisiae. Kind of experiment: Kirby–Bauer disk diffusion assay on IL-containing YPD plates. Conditions: 100 = no growth on plate. Here is the method:
as §1, §2
Similar experiments testing the combinatorial effects of [HMIM]Cl or [OMIM]Cl were performed on S. cerevisiae using Kirby–Bauer disk assays and quantified for changes in ZOI (Appendix Figure A1). ZOI measurements (mm) from both C. albicans and S. cerevisiae were compiled, and the averages are shown numerically as well as with shading and plotted in Figure 3. […] Finally, at intermediate concentrations of both [HMIM]Cl and [OMIM]Cl, a combinatorial effect of IL + AF was evident for all four AFs in S. cerevisiae, similar to observations in C. albicans.

[7] abbreviates: 50% growth after 48 h in YPD media, OD600, read-out: MIC50.

Regarding `CC(=O)N1CCN(c2ccc(OCC3COC(Cn4ccnc4)(c4ccc(Cl)cc4Cl)O3)cc2)CC1` (stereo not shown) [Ketoconazole], the “Zone of inhibition (ZOI) diameter” value in experiment [1] ([HMIM]Cl 0 mM in plate) came to 13.67 mm; in experiment [1] ([HMIM]Cl 2.5 mM in plate) it was 17 mm; in experiment [1] ([HMIM]Cl 6.25 mM in plate), 29 mm; in experiment [1] ([HMIM]Cl 25 mM in plate) it was 47.67 mm; in experiment [1] ([OMIM]Cl 0 M in plate), 13.67 mm; in experiment [1] ([OMIM]Cl 0.25 mM in plate), 19.33 mm. Also, the “Zone of inhibition (ZOI) diameter” value in experiment [1] ([OMIM]Cl 0.625 mM in plate) turned out to be 28 mm; in experiment [1] ([OMIM]Cl 2.5 mM in plate) it was 57.33 mm; in experiment [6] ([HMIM]Cl 0 mM in plate), 25 mm; in experiment [6] ([HMIM]Cl 2.5 mM in plate) it was 27.33 mm; in experiment [6] ([HMIM]Cl 6.25 mM in plate), 63 mm; in experiment [6] ([HMIM]Cl 25 mM in plate), 100 mm. The “Zone of inhibition (ZOI) diameter” value in experiment [6] ([OMIM]Cl 0 M in plate) is given as 25 mm; in experiment [6] ([OMIM]Cl 0.25 mM in plate), 29.67 mm; in experiment [6] ([OMIM]Cl 0.625 mM in plate), 57.33 mm; in experiment [6] ([OMIM]Cl 2.5 mM in plate), 100 mm. In addition, the “inhibition of C. albicans growth around disk” value in experiment [1] is “minimal inhibition”. The MIC50 turned out to be 1 µg/mL in experiment [2] (setting [7]), 0.5 µg/mL in experiment [3] (setting [7]), 0.5 µg/mL in experiment [4] (setting [7]) and 0.5 µg/mL in experiment [5] (setting [7]).

For `CCn1cc[n+](C)c1` [[EMIM]Cl, 1-ethyl-3-methylimidazolium chloride], the MIC50 was over 100 mM in experiment [2], 25 mM in experiment [3] (48 h), 50 mM in experiment [4] (48 h) and 50 mM in experiment [5] (48 h).

As to `OC(Cn1cncn1)(Cn1cncn1)c1ccc(F)cc1F` [Fluconazole], the “Zone of inhibition (ZOI) diameter” value in experiment [1] ([HMIM]Cl 0 mM in plate) came out at 0 mm; in experiment [1] ([HMIM]Cl 2.5 mM in plate) it was 0 mm; in experiment [1] ([HMIM]Cl 6.25 mM in plate), 31.33 mm; in experiment [1] ([HMIM]Cl 25 mM in plate), 47.33 mm; in experiment [1] ([OMIM]Cl 0 M in plate) it was 0 mm; in experiment [1] ([OMIM]Cl 0.25 mM in plate) it was 0 mm. In addition, the “Zone of inhibition (ZOI) diameter” value in experiment [1] ([OMIM]Cl 0.625 mM in plate) is 29.33 mm; in experiment [1] ([OMIM]Cl 2.5 mM in plate) it was 70.33 mm; in experiment [6] ([HMIM]Cl 0 mM in plate), 34 mm; in experiment [6] ([HMIM]Cl 2.5 mM in plate), 36 mm; in experiment [6] ([HMIM]Cl 6.25 mM in plate), 43.33 mm; in experiment [6] ([HMIM]Cl 25 mM in plate), 100 mm. Further, the “Zone of inhibition (ZOI) diameter” value came out at 34 mm in experiment [6] ([OMIM]Cl 0 M in plate), 37.33 mm in experiment [6] ([OMIM]Cl 0.25 mM in plate), 69 mm in experiment [6] ([OMIM]Cl 0.625 mM in plate) and 100 mm in experiment [6] ([OMIM]Cl 2.5 mM in plate). Also, in experiment [1], the “inhibition of C. albicans growth around disk” value was “no inhibition”. Besides, the MIC50 is 8 µg/mL in experiment [2] (setting [7]), 4 µg/mL in experiment [3] (setting [7]), 4 µg/mL in experiment [4] (setting [7]) and 4 µg/mL in experiment [5] (setting [7]).

With `CCC(C)n1ncn(-c2ccc(N3CCN(c4ccc(OCC5COC(Cn6cncn6)(c6ccc(Cl)cc6Cl)O5)cc4)CC3)cc2)c1=O` (stereo not shown) [Itraconazole], the “Zone of inhibition (ZOI) diameter” value stood at 0 mm in experiment [1] ([HMIM]Cl 0 mM in plate); 0 mm in experiment [1] ([HMIM]Cl 2.5 mM in plate); 12.67 mm in experiment [1] ([HMIM]Cl 6.25 mM in plate); 16 mm in experiment [1] ([HMIM]Cl 25 mM in plate); 0 mm in experiment [1] ([OMIM]Cl 0 M in plate); 0 mm in experiment [1] ([OMIM]Cl 0.25 mM in plate). Also, the “Zone of inhibition (ZOI) diameter” value in experiment [1] ([OMIM]Cl 0.625 mM in plate) stood at 16.33 mm; in experiment [1] ([OMIM]Cl 2.5 mM in plate), 26.33 mm; in experiment [6] ([HMIM]Cl 0 mM in plate), 8 mm; in experiment [6] ([HMIM]Cl 2.5 mM in plate), 9.33 mm; in experiment [6] ([HMIM]Cl 6.25 mM in plate), 14 mm; in experiment [6] ([HMIM]Cl 25 mM in plate) it was 100 mm. The “Zone of inhibition (ZOI) diameter” value is reported as 8 mm in experiment [6] ([OMIM]Cl 0 M in plate), 9 mm in experiment [6] ([OMIM]Cl 0.25 mM in plate), 21.67 mm in experiment [6] ([OMIM]Cl 0.625 mM in plate) and 100 mm in experiment [6] ([OMIM]Cl 2.5 mM in plate). Besides, the “inhibition of C. albicans growth around disk” value in experiment [1] is recorded as “no inhibition”. Moreover, the MIC50 was 1 µg/mL in experiment [2] (setting [7]), 0.5 µg/mL in experiment [3] (setting [7]), 0.5 µg/mL in experiment [4] (setting [7]) and 0.5 µg/mL in experiment [5] (setting [7]).

What is called MIC50 is the lowest concentration that inhibits either 50% of growth or 50% of the strains tested, depending on the study.
